Test results reported in patent US8546409B2, “Methods of treatment for solid tumors” (priority 2009, dated 2013).

Experiments:
Format in all cases: cell-based
MALME-3M = assay: NCI panel growth inhibition, MALME-3M; settings: Homo sapiens, Melanoma
Source text: (§1) Compound I has also been tested in a battery of tumor cell assays known as the NCI panel.

HCT-15 = assay: NCI panel growth inhibition, HCT-15; settings: Homo sapiens, Colon Cancer
Source text: as §1

CAKI-1 = assay: NCI panel growth inhibition, CAKI-1; settings: Homo sapiens, Renal
Source text: as §1

SN12C = assay: NCI panel growth inhibition, SN12C; settings: Homo sapiens, Renal
Source text: as §1

HS 578T = assay: NCI panel growth inhibition, HS 578T; settings: Homo sapiens, Breast Cancer
Source text: as §1

M14 = assay: NCI panel growth inhibition, M14; settings: Homo sapiens, Melanoma
Source text: as §1

NCI-H460 = assay: NCI panel growth inhibition, NCI-H460; settings: Homo sapiens, Non-Small Cell Lung Cancer
Source text: as §1

KM12 = assay: NCI panel growth inhibition, KM12; settings: Homo sapiens, Colon Cancer
Source text: as §1

SF-268 = assay: NCI panel growth inhibition, SF-268; settings: Homo sapiens, CNS Cancer
Source text: as §1

SK-MEL-2 = assay: NCI panel growth inhibition, SK-MEL-2; settings: Homo sapiens, Melanoma
Source text: as §1

PC-3 = assay: NCI panel growth inhibition, PC-3; settings: Homo sapiens, Prostate
Source text: as §1

MCF7 = assay: NCI panel growth inhibition, MCF7; settings: Homo sapiens, Breast Cancer
Source text: as §1

T-47D = assay: NCI panel growth inhibition, T-47D; settings: Homo sapiens, T47D, Breast Cancer
Source text: as §1

IGROV1 = assay: NCI panel growth inhibition, IGROV1; settings: Homo sapiens, IGROV-1, Ovarian
Source text: as §1

HOP-92 = assay: NCI panel growth inhibition, HOP-92; settings: Homo sapiens, Non-Small Cell Lung Cancer
Source text: as §1

NCI-H226 = assay: NCI panel growth inhibition, NCI-H226; settings: Homo sapiens, Non-Small Cell Lung Cancer
Source text: as §1

SW-620 = assay: NCI panel growth inhibition, SW-620; settings: Homo sapiens, Colon Cancer
Source text: as §1

MDA-MB-468 = assay: NCI panel growth inhibition, MDA-MB-468; settings: Homo sapiens, Breast Cancer
Source text: as §1

[1] = tested on: NCI panel cancer cell lines; assay: NCI panel of tumor cell assays, summary over cell lines; settings: all NCI panel cell lines
Source text: Compound I has also been tested in a battery of tumor cell assays known as the NCI panel. […] Using this measure, 1.8% of cell lines were particularly sensitive to Compound B at this level, while 39% were particularly sensitive to Compound I at the same concentration. […] Loss of PTEN activity often occurs in cancers, and enhances the sensitivity of a tumor to PI3K inhibitors. […] The following Table summarizes the cell lines found to be sensitive to Compound I and the known mutations in those cell lines.

SNB-19 = assay: NCI panel growth inhibition, SNB-19; settings: Homo sapiens, CNS Cancer
Source text: as §1

HCT-116 = assay: NCI panel growth inhibition, HCT-116; settings: Homo sapiens, Colon Cancer
Source text: as §1

SK-MEL-5 = assay: NCI panel growth inhibition, SK-MEL-5; settings: Homo sapiens, Melanoma
Source text: as §1

EKVX = assay: NCI panel growth inhibition, EKVX; settings: Homo sapiens, Non-Small Cell Lung Cancer
Source text: as §1

NCI-H322M = assay: NCI panel growth inhibition, NCI-H322M; settings: Homo sapiens, Non-Small Cell Lung Cancer
Source text: as §1

HT29 = assay: NCI panel growth inhibition, HT29; settings: Homo sapiens, HT-29, Colon Cancer
Source text: as §1

MDA-MB-231 = assay: NCI panel growth inhibition, MDA-MB-231; settings: Homo sapiens, Breast Cancer
Source text: as §1

A498 = assay: NCI panel growth inhibition, A498; settings: Homo sapiens, Renal
Source text: as §1

HCC-2998 = assay: NCI panel growth inhibition, HCC-2998; settings: Homo sapiens, Colon Cancer
Source text: as §1

NCI-H23 = assay: NCI panel growth inhibition, NCI-H23; settings: Homo sapiens, Non-Small Cell Lung Cancer
Source text: as §1

OVCAR-8 = assay: NCI panel growth inhibition, OVCAR-8; settings: Homo sapiens, Ovarian
Source text: as §1

UACC-62 = assay: NCI panel growth inhibition, UACC-62; settings: Homo sapiens, Melanoma
Source text: as §1

SK-OV-3 = assay: NCI panel growth inhibition, SK-OV-3; settings: Homo sapiens, Ovarian
Source text: as §1

OVCAR-4 = assay: NCI panel growth inhibition, OVCAR-4; settings: Homo sapiens, Ovarian
Source text: as §1

BT-549 = assay: NCI panel growth inhibition, BT-549; settings: Homo sapiens, Breast Cancer
Source text: as §1

UACC-257 = assay: NCI panel growth inhibition, UACC-257; settings: Homo sapiens, Melanoma
Source text: as §1

COLO 205 = assay: NCI panel growth inhibition, COLO 205; settings: Homo sapiens, Colon Cancer
Source text: as §1

SF-295 = assay: NCI panel growth inhibition, SF-295; settings: Homo sapiens, CNS Cancer
Source text: as §1

U251 = assay: NCI panel growth inhibition, U251; settings: Homo sapiens, U-251, CNS Cancer
Source text: as §1

TK-10 = assay: NCI panel growth inhibition, TK-10; settings: Homo sapiens, Renal
Source text: as §1

UO-31 = assay: NCI panel growth inhibition, UO-31; settings: Homo sapiens, Renal
Source text: as §1

MDA-MB-435 = assay: NCI panel growth inhibition, MDA-MB-435; settings: Homo sapiens, Breast Cancer
Source text: as §1

OVCAR-5 = assay: NCI panel growth inhibition, OVCAR-5; settings: Homo sapiens, Ovarian
Source text: as §1

ADR-RES = assay: NCI panel growth inhibition, ADR-RES; settings: Breast Cancer
Source text: as §1

786-0 = assay: NCI panel growth inhibition, 786-0; settings: Homo sapiens, Renal
Source text: as §1

SK-MEL-28 = assay: NCI panel growth inhibition, SK-MEL-28; settings: Homo sapiens, Melanoma
Source text: as §1

ACHN = assay: NCI panel growth inhibition, ACHN; settings: Homo sapiens, Renal
Source text: as §1

A549 = assay: NCI panel growth inhibition, A549; settings: Homo sapiens, Non-Small Cell Lung Cancer
Source text: as §1

RXF 393 = assay: NCI panel growth inhibition, RXF 393; settings: Homo sapiens, Renal
Source text: as §1

DU-145 = assay: NCI panel growth inhibition, DU-145; settings: Homo sapiens, Prostate
Source text: as §1

SNB-75 = assay: NCI panel growth inhibition, SNB-75; settings: Homo sapiens, CNS Cancer
Source text: as §1

OVCAR-3 = assay: NCI panel growth inhibition, OVCAR-3; settings: Homo sapiens, Ovarian
Source text: as §1

LOX IMVI = assay: NCI panel growth inhibition, LOX IMVI; settings: Homo sapiens, Melanoma
Source text: as §1

HOP-62 = assay: NCI panel growth inhibition, HOP-62; settings: Homo sapiens, Non-Small Cell Lung Cancer
Source text: as §1

NCI-H522 = assay: NCI panel growth inhibition, NCI-H522; settings: Homo sapiens, Non-Small Cell Lung Cancer
Source text: as §1

SF-539 = assay: NCI panel growth inhibition, SF-539; settings: Homo sapiens, CNS Cancer
Source text: as §1

Compound: CC[C@H](Nc1ncnc2[nH]cnc12)c1nc2cccc(F)c2c(=O)n1-c1ccccc1 [Compound B, reference compound]
- GI50 (MALME-3M): 31.6 µM
- GI50 (HCT-15): 48.4 µM
- GI50 (CAKI-1): 13.4 µM
- GI50 (SN12C): 11 µM
- GI50 (HS 578T): 6.91 µM
- GI50 (M14): 58.4 µM
- GI50 (NCI-H460): 34.7 µM
- GI50 (KM12): 54.1 µM
- GI50 (SF-268): 29.8 µM
- GI50 (SK-MEL-2): 100 µM
- GI50 (PC-3): 12 µM
- GI50 (MCF7): 7.08 µM
- GI50 (T-47D): 3.18 µM
- GI50 (IGROV1): 3.54 µM
- GI50 (HOP-92): 34.8 µM
- GI50 (NCI-H226): 100 µM
- GI50 (SW-620): 86.4 µM
- GI50 (MDA-MB-468): 13.6 µM
- Cell lines particularly sensitive (GI50 of 2 micromolar or less) [1]: 1.8%
- GI50 (SNB-19): 54.8 µM
- GI50 (HCT-116): 54.3 µM
- GI50 (SK-MEL-5): 32.9 µM
- GI50 (EKVX): 28.2 µM
- GI50 (NCI-H322M): 32.2 µM
- GI50 (HT29): 39.1 µM
- GI50 (MDA-MB-231): 100 µM
- GI50 (A498): 2.38 µM
- GI50 (HCC-2998): 53.3 µM
- GI50 (NCI-H23): 100 µM
- GI50 (OVCAR-8): 96 µM
- GI50 (UACC-62): 4.2 µM
- GI50 (SK-OV-3): 13.8 µM
- GI50 (OVCAR-4): 100 µM
- GI50 (BT-549): 14.3 µM
- GI50 (UACC-257): 33.5 µM
- GI50 (COLO 205): 30.1 µM
- GI50 (SF-295): 8.18 µM
- GI50 (U251): 70.4 µM
- GI50 (TK-10): 31.7 µM
- GI50 (UO-31): 5.32 µM
- GI50 (MDA-MB-435): 16.4 µM
- GI50 (OVCAR-5): 40.1 µM
- GI50 (ADR-RES): 77.9 µM
- GI50 (786-0): 5.48 µM
- GI50 (SK-MEL-28): 38.6 µM
- GI50 (ACHN): 24.4 µM
- GI50 (A549): 50.4 µM
- GI50 (RXF 393): 74.2 µM
- GI50 (DU-145): 43.8 µM
- GI50 (SNB-75): 2.96 µM
- GI50 (OVCAR-3): 15.5 µM
- GI50 (LOX IMVI): 31.1 µM
- GI50 (HOP-62): 39.7 µM
- GI50 (NCI-H522): 52.7 µM
- GI50 (SF-539): 28.6 µM
